Here are results for 51 compounds from US11214565B2, “Compound, compositions, and methods” (Denali Therapeutics Inc., priority 2015, dated 2022).

Sequence of LRRK2 G2019S enzyme (Q5S007 whole entry G2019S): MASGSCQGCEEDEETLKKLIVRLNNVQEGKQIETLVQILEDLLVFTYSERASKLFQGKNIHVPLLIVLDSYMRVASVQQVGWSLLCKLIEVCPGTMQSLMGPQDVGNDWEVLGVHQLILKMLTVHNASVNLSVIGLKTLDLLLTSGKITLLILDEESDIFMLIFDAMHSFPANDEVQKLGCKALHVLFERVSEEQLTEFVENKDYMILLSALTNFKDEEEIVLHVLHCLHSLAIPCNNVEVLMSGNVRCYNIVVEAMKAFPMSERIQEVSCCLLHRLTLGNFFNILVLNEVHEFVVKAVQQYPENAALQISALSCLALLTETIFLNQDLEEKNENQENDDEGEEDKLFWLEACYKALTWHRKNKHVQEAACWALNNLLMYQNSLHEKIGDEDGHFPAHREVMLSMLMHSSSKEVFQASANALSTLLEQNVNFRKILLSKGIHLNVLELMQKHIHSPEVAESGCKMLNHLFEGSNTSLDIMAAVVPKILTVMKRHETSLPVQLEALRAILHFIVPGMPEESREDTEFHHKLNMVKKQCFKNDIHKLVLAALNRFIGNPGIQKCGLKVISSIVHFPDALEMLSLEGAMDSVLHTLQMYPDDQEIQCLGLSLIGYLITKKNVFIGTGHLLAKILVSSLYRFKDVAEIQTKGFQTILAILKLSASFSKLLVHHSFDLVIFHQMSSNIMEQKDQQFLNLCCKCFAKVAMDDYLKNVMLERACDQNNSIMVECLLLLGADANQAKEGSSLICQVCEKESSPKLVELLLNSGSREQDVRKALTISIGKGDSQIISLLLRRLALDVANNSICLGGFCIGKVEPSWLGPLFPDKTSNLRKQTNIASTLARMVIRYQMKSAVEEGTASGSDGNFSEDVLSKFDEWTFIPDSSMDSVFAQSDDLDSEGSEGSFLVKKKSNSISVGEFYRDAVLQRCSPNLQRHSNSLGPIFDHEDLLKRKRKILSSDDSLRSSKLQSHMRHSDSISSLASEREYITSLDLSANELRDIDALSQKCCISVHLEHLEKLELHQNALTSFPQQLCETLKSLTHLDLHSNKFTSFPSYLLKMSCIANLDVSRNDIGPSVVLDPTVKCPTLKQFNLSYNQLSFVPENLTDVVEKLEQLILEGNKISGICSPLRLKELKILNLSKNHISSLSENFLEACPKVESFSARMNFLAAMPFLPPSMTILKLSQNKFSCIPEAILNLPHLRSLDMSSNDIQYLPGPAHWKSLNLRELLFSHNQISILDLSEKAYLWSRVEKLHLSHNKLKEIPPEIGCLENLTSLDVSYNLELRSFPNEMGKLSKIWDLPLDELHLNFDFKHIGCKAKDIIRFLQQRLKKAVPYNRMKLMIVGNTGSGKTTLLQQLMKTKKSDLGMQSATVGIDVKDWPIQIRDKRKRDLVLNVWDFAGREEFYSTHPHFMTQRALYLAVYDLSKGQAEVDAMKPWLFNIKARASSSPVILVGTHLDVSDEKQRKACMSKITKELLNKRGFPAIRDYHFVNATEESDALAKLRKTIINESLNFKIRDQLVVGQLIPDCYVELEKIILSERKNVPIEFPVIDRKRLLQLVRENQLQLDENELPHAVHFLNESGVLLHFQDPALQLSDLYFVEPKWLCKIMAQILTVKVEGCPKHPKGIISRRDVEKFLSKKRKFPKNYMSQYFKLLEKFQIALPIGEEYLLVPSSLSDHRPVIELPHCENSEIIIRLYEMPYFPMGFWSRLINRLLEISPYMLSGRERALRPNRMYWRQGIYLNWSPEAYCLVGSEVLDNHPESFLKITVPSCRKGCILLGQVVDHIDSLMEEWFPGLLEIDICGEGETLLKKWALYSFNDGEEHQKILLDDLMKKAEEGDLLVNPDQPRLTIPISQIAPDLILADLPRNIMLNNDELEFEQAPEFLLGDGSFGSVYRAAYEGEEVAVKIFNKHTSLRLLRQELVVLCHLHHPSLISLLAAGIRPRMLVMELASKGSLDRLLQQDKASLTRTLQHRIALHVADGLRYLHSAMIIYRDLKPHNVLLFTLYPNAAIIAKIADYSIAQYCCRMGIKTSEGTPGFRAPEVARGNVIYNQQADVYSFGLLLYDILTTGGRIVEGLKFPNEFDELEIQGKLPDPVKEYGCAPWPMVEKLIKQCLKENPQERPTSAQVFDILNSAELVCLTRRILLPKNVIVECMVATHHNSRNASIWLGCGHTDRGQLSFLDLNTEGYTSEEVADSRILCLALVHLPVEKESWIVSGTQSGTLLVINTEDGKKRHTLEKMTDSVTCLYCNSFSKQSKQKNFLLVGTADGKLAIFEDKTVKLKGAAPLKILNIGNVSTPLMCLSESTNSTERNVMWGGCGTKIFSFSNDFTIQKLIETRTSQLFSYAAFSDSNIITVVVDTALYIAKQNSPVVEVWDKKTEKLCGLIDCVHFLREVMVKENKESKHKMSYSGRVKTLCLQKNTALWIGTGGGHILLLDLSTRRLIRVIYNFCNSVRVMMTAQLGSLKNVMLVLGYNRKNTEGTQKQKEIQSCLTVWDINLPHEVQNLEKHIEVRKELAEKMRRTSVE

The first assay addresses LRRK2 G2019S enzyme (Homo sapiens (Human), UniProt Q5S007, G2019S). Nature of the assay: LRRK2 G2019S TR-FRET biochemical kinase assay (LRRKtide substrate). As to conditions: Table C-2; 5 nM LRRK2, 134 μM ATP, 60 minute reaction, 23° C. A digest of the protocol: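 5 nM LRRK2 G2019S preincubated 20 min with LRRKtide and compound (3.162-fold dilution series) in Tris pH 7.5, MgCl2, EGTA, Brij-35, DTT, then reacted 60 min at 23 °C with 134 μM ATP. EDTA-stopped; pLRRKtide antibody detection, TR-FRET read at 340 nm excitation, 520/490–495 nm emission.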
For orientation: Time-resolved FRET reads energy transfer from a long-lived donor to a nearby acceptor.
As to `Cc1c(Nc2nc(C3CC3)c3c(C#N)c[nH]c3n2)cnn1C(CF)CF` [Compound C-11, 4-cyclopropyl-2-[[1-[2-fluoro-1-(fluoromethyl)ethyl]-5-methyl-pyrazol-4-yl]amino]-7H-pyrrolo[2,3-d]pyrimidine-5-carbonitrile], the IC50 (in general, the concentration that inhibits the measured activity by half) was < 50 nM.

On to `Cc1nn(C(CF)CF)cc1Nc1nc(C2CC2)c2c(C#N)c[nH]c2n1` [Compound C-12, 4-cyclopropyl-2-[[1-[2-fluoro-1-(fluoromethyl)ethyl]-3-methyl-pyrazol-4-yl]amino]-7H-pyrrolo[2,3-d]pyrimidine-5-carbonitrile], for which the 50% inhibitory concentration (IC50) was < 50 nM.

For `N#Cc1c[nH]c2nc(Nc3cnn4c3CC3(CC3)C4)nc(C3CC3)c12` [Compound C-13, 4-cyclopropyl-2-(spiro[4,6-dihydropyrrolo[1,2-b]pyrazole-5,1′-cyclopropane]-3-ylamino)-7H-pyrrolo[2,3-d]pyrimidine-5-carbonitrile], the IC50 was < 50 nM.

For `Cc1nn(C(C)(C)C#N)cc1Nc1nc(C2CC2)c2c(F)c[nH]c2n1` [Compound C-14, 2-[4-[(4-cyclopropyl-5-fluoro-7H-pyrrolo[2,3-d]pyrimidin-2-yl)amino]-3-methyl-pyrazol-1-yl]-2-methyl-propanenitrile], the 50% inhibitory concentration (IC50) is < 50 nM.

`Cn1ccc(Nc2cc(C3CC3)c3nc[nH]c3n2)n1` [Compound C-17, 7-cyclopropyl-N-(1-methyl-1H-pyrazol-3-yl)-3H-imidazo[4,5-b]pyridin-5-amine]: the IC50 was > 100 nM.

Regarding `Cc1c(Nc2nc(C3CC3)c3c(C#N)c[nH]c3n2)cnn1C` [Compound C-18, 4-cyclopropyl-2-[(1,5-dimethylpyrazol-4-yl)amino]-7H-pyrrolo[2,3-d]pyrimidine-5-carbonitrile], the concentration for half-maximal inhibition (IC50) is < 50 nM.

As for `Cc1nn(C)cc1Nc1nc(C2CC2)c2c(C#N)c[nH]c2n1` [Compound C-19, 4-cyclopropyl-2-[(1,3-dimethylpyrazol-4-yl)amino]-7H-pyrrolo[2,3-d]pyrimidine-5-carbonitrile], the IC50 is < 50 nM.

Consider `Cc1cn(C)nc1Nc1cc(C2CC2)c2c(C#N)c[nH]c2n1` [Compound C-20, 4-cyclopropyl-6-((1,4-dimethyl-1H-pyrazol-3-yl)amino)-1H-pyrrolo[2,3-b]pyridine-3-carbonitrile], for which the IC50 was < 50 nM.

On to `Cn1ccc(Nc2cc(C3CC3)c3c(C#N)c[nH]c3n2)n1` [Compound C-21, 4-cyclopropyl-6-((1-methyl-1H-pyrazol-3-yl)amino)-1H-pyrrolo[2,3-b]pyridine-3-carbonitrile], for which the IC50 was < 50 nM.

Turning to `Cc1nn(C(C)(C)C#N)cc1Nc1nc(C2CC2)c2c(Cl)c[nH]c2n1` [Compound C-22], the IC50 was < 50 nM.

Turning to `Cc1nn(C(C)(C)C#N)cc1Nc1nc(C2CC2)c2cc[nH]c2n1` [Compound C-23], the IC50 is < 50 nM.

For `Cc1nn(C)cc1Nc1nc(C2CC2)c2cc[nH]c2n1` [Compound C-24], the half-inhibitory concentration (IC50) is < 50 nM.

Regarding `Cc1c(Nc2nc(C3CC3)c3cc[nH]c3n2)cnn1C` [Compound C-25], the half-maximal inhibitory concentration (IC50) is < 50 nM.

With `Cc1nn(C(C)(C)c2ncn(C)n2)cc1Nc1nc(C2CC2)c2c(C#N)c[nH]c2n1` [Compound C-26], the concentration for half-maximal inhibition (IC50) is < 50 nM.

On to `Cc1nn(C(C)(C)c2ncn(C)n2)cc1Nc1nc(C2CC2)c2cc[nH]c2n1` [Compound C-27], for which the IC50 was < 50 nM.

On to `Cc1nn(C(C)(C)c2ncn(C)n2)cc1Nc1nc(C2CC2)c2c(Cl)c[nH]c2n1` [Compound C-28], for which the concentration for half-maximal inhibition (IC50) is < 50 nM.

As to `Cc1nn(C(C)(C)c2ncn(C)n2)cc1Nc1nc(C2CC2)c2c(F)c[nH]c2n1` [Compound C-29], the 50% inhibitory concentration (IC50) was < 50 nM.

Turning to `Cc1nn(C(CF)CF)cc1Nc1nc(C2CC2)c2cc[nH]c2n1` [Compound C-30], the half-maximal inhibitory concentration (IC50) was < 50 nM.

For the compound `Cc1c(Nc2nc(C3CC3)c3cc[nH]c3n2)cnn1C(CF)CF` [Compound C-31], the IC50 was < 50 nM.

In the case of `Cc1c(Nc2nc(C3CC3)c3c(Cl)c[nH]c3n2)cnn1C(CF)CF` [Compound C-32], the half-inhibitory concentration (IC50) was < 50 nM.

On to `Cc1nc2c(C3CC3)nc(Nc3cnn(C)c3C)nc2[nH]1` [Compound C-33], for which the IC50 was > 100 nM.

Regarding `Cc1nc2c(C3CC3)nc(Nc3cn(C)nc3C)nc2[nH]1` [Compound C-34], the 50% inhibitory concentration (IC50) is > 100 nM.

Regarding `Cc1cn(C)nc1Nc1cc(C2CC2)c2nc[nH]c2n1` [Compound C-35], the IC50 is > 100 nM.

`Cc1nn(C2(C)CC2)cc1Nc1nc(C2CC2)c2nc[nH]c2n1` [Compound C-36]: the IC50 was < 50 nM.

For `Cc1nn(C(C)(C)c2ccn(C)n2)cc1Nc1nc(C2CC2)c2nc[nH]c2n1` [Compound C-37], the concentration for half-maximal inhibition (IC50) is < 50 nM.

In the case of `Clc1c(Nc2nc(C3CC3)c3nc[nH]c3n2)cnn1CC1CC1` [Compound C-38], the concentration for half-maximal inhibition (IC50) is < 50 nM.

As for `Cc1c(Nc2nc(C3CC3)c3c(C#N)c[nH]c3n2)cnn1C(F)F` [Compound C-39], the IC50 was < 50 nM.

For the compound `Cc1nn(C(F)F)cc1Nc1nc(C2CC2)c2c(C#N)c[nH]c2n1` [Compound C-40], the IC50 is < 50 nM.

With `Cc1nn(C(C)(C)C#N)cc1Nc1nc(C2CC2)c2c(C3CC3)c[nH]c2n1` [Compound C-41], the IC50 was < 50 nM.

Consider `Cc1nn(C(C)(C)C#N)cc1Nc1nc(C2CC2)c2c(C(F)(F)F)c[nH]c2n1` [Compound C-42], for which the IC50 was < 50 nM.

As to `Cc1c(Nc2nc(C3CC3)c3c(C#N)c[nH]c3n2)cnn1C1CC2CC2C1` (stereo not drawn) [Compound C-43], the IC50 was < 50 nM.

As for `Cc1nn(C2CC3CC3C2)cc1Nc1nc(C2CC2)c2c(C#N)c[nH]c2n1` (stereo not drawn) [Compound C-44], the IC50 is < 50 nM.

Regarding `Cc1c(Nc2nc(C3CC3)c3nc[nH]c3n2)cnn1C1CC2CC2C1` (stereo not drawn) [Compound C-45], the 50% inhibitory concentration (IC50) is < 50 nM.

With `Cc1nn(C2CC3CC3C2)cc1Nc1nc(C2CC2)c2nc[nH]c2n1` (stereo not drawn) [Compound C-46], the IC50 is < 50 nM.

For the compound `Cc1c(Nc2nc(C3CC3)c3c(C#N)c[nH]c3n2)cnn1CCOC(F)F` [Compound C-47], the IC50 was < 50 nM.

For `Cc1c(Nc2nc(C3CC3)c3nc[nH]c3n2)cnn1CCOC(F)F` [Compound C-48], the IC50 is < 50 nM.

With `Cc1c(Nc2nc(C3CC3)c3nc[nH]c3n2)cnn1C1CC1` [Compound C-49], the IC50 is < 50 nM.

Consider `Cc1nn(C2CC2)cc1Nc1nc(C2CC2)c2nc[nH]c2n1` [Compound C-50], for which the IC50 was < 50 nM.

Consider `Cc1nn(CC2CC2)cc1Nc1nc(C2CC2)c2nc[nH]c2n1` [Compound C-52], for which the IC50 is < 50 nM.

Regarding `Cc1c(Nc2cc(C3CC3)c3c(C#N)c[nH]c3n2)cnn1C1CC1` [Compound C-53], the IC50 is < 50 nM.

`Cc1nn(C2CC2)cc1Nc1cc(C2CC2)c2c(C#N)c[nH]c2n1` [Compound C-54]: the IC50 was < 50 nM.

In the case of `Cc1nn(C(CF)CF)cc1Nc1nc(C2CC2)c2c(Cl)c[nH]c2n1` [Compound C-55], the IC50 is < 50 nM.

Still in this assay, the particulars now being: Table D-4; 5 nM LRRK2, 134 μM ATP, 60 minute reaction, 23° C.
Consider `CNc1nc(Nc2cn(CC3(CC#N)CC3)nc2C)ncc1C(F)(F)F` [Compound D-1, 2-(1-((3-methyl-4-((4-(methylamino)-5-(trifluoromethyl)pyrimidin-2-yl)amino)-1H-pyrazol-1-yl)methyl)cyclopropyl)acetonitrile], for which the IC50 is > 60 nM.

Turning to `CNc1nc(Nc2cnn(C3CCn4ccnc43)c2C)ncc1C(F)(F)F` [Compound D-2, N2-[1-(6,7-dihydro-5H-pyrrolo[1,2-a]imidazol-7-yl)-5-methyl-pyrazol-4-yl]-N4-methyl-5-(trifluoromethyl)pyrimidine-2,4-diamine], the IC50 is < 30 nM.

Consider `CNc1nc(Nc2cn(CC3(Cn4cncn4)CC3)nc2C)ncc1C(F)(F)F` [Compound D-5, N2-(1-((1-((1H-1,2,4-triazol-1-yl)methyl)cyclopropyl)methyl)-3-methyl-1H-pyrazol-4-yl)-N4-methyl-5-(trifluoromethyl)pyrimidine-2,4-diamine], for which the IC50 was > 60 nM.

For `CNc1nc(Nc2cnn(CC3(Cn4cncn4)CC3)c2C)ncc1C(F)(F)F` [Compound D-6, N2-(1-((1-((1H-1,2,4-triazol-1-yl)methyl)cyclopropyl)methyl)-5-methyl-1H-pyrazol-4-yl)-N4-methyl-5-(trifluoromethyl)pyrimidine-2,4-diamine], the half-inhibitory concentration (IC50) was < 30 nM.

Take `CNc1nc(Nc2cnn(C3CCc4nnc(C)n4C3)c2C)ncc1C(F)(F)F` [Compound D-7, N4-methyl-N2-[5-methyl-1-(3-methyl-5,6,7,8-tetrahydro-[1,2,4]triazolo[4,3-a]pyridin-6-yl)pyrazol-4-yl]-5-(trifluoromethyl)pyrimidine-2,4-diamine]: the half-maximal inhibitory concentration (IC50) is < 30 nM.

For the compound `CNc1nc(Nc2cn(C3CCc4nnc(C)n4C3)nc2C)ncc1C(F)(F)F` [Compound D-8, N4-methyl-N2-[3-methyl-1-(3-methyl-5,6,7,8-tetrahydro-[1,2,4]triazolo[4,3-a]pyridin-6-yl)pyrazol-4-yl]-5-(trifluoromethyl)pyrimidine-2,4-diamine], the concentration for half-maximal inhibition (IC50) is > 60 nM.

Turning to `CNc1nc(Nc2cnn(CCOC(F)F)c2C)ncc1C(F)(F)F` [Compound D-9, N2-[1-[2-(difluoromethoxy)ethyl]-5-methyl-pyrazol-4-yl]-N4-methyl-5-(trifluoromethyl)pyrimidine-2,4-diamine], the 50% inhibitory concentration (IC50) is < 30 nM.

In turn, `CNc1nc(Nc2cn(CCOC(F)F)nc2C)ncc1C(F)(F)F` [Compound D-10, N2-[1-[2-(difluoromethoxy)ethyl]-3-methyl-pyrazol-4-yl]-N4-methyl-5-(trifluoromethyl)pyrimidine-2,4-diamine] registered an IC50 of 30 to 60 nM.

As to `CNc1nc(Nc2cnn(CCOC(F)F)c2Cl)ncc1C(F)(F)F` [Compound D-11, N2-[5-chloro-1-[2-(difluoromethoxy)ethyl]pyrazol-4-yl]-N4-methyl-5-(trifluoromethyl)pyrimidine-2,4-diamine], the IC50 is < 30 nM.
